Tests used:
[1] = molecular target: T1, plant protox mutants (Arabidopsis protox-1) in SASX38 (Arabidopsis thaliana, UniProt P55826, A220L/T56K/Y426M); assay: Bacterial cross-tolerance testing of resistant mutant plasmids in SASX38, Arabidopsis protox-1 mutants; type: cell-based; parameters: key to Cross tolerance, AraC-1Val / Cross tolerance, AraC-2Cys / Cross tolerance, AraC-1Thr / Cross tolerance, AraC-3Thr / Cross tolerance, AraC-2Ile / Cross tolerance, AraC-2Cys + AraC425Ser: + = 10× or more tolerant than WT; ++ = 100× or more tolerant than WT; − = no cross tolerance; settings: mutant AraC-1Leu + AraC-2Met
T1 construct: contains only 17 amino acids of the putative chloroplast transit peptide; expressed in transfected cells; host or cells: E. coli SASX38 (hemG mutant)
Experimental: (§1) Resistant mutant plasmids, originally identified based on resistance against a single protox inhibitory herbicide, were tested against a spectrum of other protox inhibiting compounds. For this test, the SASX38 strain containing the wild-type plasmid is plated on a range of concentrations of each compound to determine the lethal concentration for each one. Resistant mutant plasmids in SASX38 are plated and scored for the ability to survive on a concentration of each compound at least 10 fold higher than the concentration that is lethal to the SASX38 strain containing the wild-type plasmid.

[2] = molecular target: T2, plant protox mutants (Arabidopsis protox-1) in SASX38 (Arabidopsis thaliana, UniProt P55826, N425S/T56K/Y426M); assay: as above; type: cell-based; parameters: key to Cross tolerance, AraC-1Val / Cross tolerance, AraC-2Cys / Cross tolerance, AraC-1Thr / Cross tolerance, AraC-3Thr / Cross tolerance, AraC-2Ile / Cross tolerance, AraC-2Cys + AraC425Ser: + = 10× or more tolerant than WT; ++ = 100× or more tolerant than WT; − = no cross tolerance; settings: mutant AraC-2Met + AraC425Ser
T2 construct: contains only 17 amino acids of the putative chloroplast transit peptide; expressed in transfected cells; host or cells: E. coli SASX38 (hemG mutant)
Experimental: as §1

[3] = tested on: plant protox mutants (Arabidopsis protox-1) in SASX38; assay: as above; type: cell-based; parameters: key to Cross tolerance, AraC-1Val / Cross tolerance, AraC-2Cys / Cross tolerance, AraC-1Thr / Cross tolerance, AraC-3Thr / Cross tolerance, AraC-2Ile / Cross tolerance, AraC-2Cys + AraC425Ser: + = 10× or more tolerant than WT; ++ = 100× or more tolerant than WT; − = no cross tolerance; settings: mutant AraC-3Thr vs WT plasmid in SASX38
Experimental: as §1

[4] = molecular target: T3, plant protox mutants (Arabidopsis protox-1) in SASX38 (Arabidopsis thaliana, UniProt P55826, A220L/T56K/Y426L); assay: as above; type: cell-based; parameters: key to Cross tolerance, AraC-1Val / Cross tolerance, AraC-2Cys / Cross tolerance, AraC-1Thr / Cross tolerance, AraC-3Thr / Cross tolerance, AraC-2Ile / Cross tolerance, AraC-2Cys + AraC425Ser: + = 10× or more tolerant than WT; ++ = 100× or more tolerant than WT; − = no cross tolerance; settings: mutant AraC-1Leu + AraC-2Leu
T3 construct: contains only 17 amino acids of the putative chloroplast transit peptide; expressed in transfected cells; host or cells: E. coli SASX38 (hemG mutant)
Experimental: as §1

[5] = molecular target: T4, plant protox mutants (Arabidopsis protox-1) in SASX38 (Arabidopsis thaliana, UniProt P55826, N425S/T56K/Y426C); assay: as above; type: cell-based; parameters: key to Cross tolerance, AraC-1Val / Cross tolerance, AraC-2Cys / Cross tolerance, AraC-1Thr / Cross tolerance, AraC-3Thr / Cross tolerance, AraC-2Ile / Cross tolerance, AraC-2Cys + AraC425Ser: + = 10× or more tolerant than WT; ++ = 100× or more tolerant than WT; − = no cross tolerance; settings: mutant AraC-2Cys + AraC425Ser
T4 construct: contains only 17 amino acids of the putative chloroplast transit peptide; expressed in transfected cells; host or cells: E. coli SASX38 (hemG mutant)
Experimental: as §1

[6] = tested on: Arabidopsis line expressing AraC-2Ile+AraC305Leu; assay: Cross tolerance in a seed germination assay, homozygous Arabidopsis line with AraC-2Ile+AraC305Leu; type: in vivo, Arabidopsis thaliana; settings: AraC-2Ile+AraC305Leu line vs wt
Experimental: Using the procedure described above, an Arabidopsis protox-1 cDNA containing a TAC to ATG (Tyrosine to Methionine) change at nucleotides 1306-1308 in the protox-1 sequence (SEQ ID NO:1) was fused to the native protox-1 promoter fragment and transformed into Arabidopsis thaliana. […] Seed from the vacuum infiltrated plants was collected and plated on a range (10.0 nM-1.0 uM) of a protox inhibitory aryluracil herbicide of formula XVII. Multiple experiments with wild type Arabidopsis have shown that a 10.0 nM concentration of this compound is sufficient to prevent normal seedling germination. Transgenic seeds expressing the AraC-2Met altered enzyme fused to the native protox-1 promoter produced normal Arabidopsis seedlings at herbicide concentrations up to 500 nM, indicating at least 50-fold higher herbicide tolerance when compared to wild-type Arabidopsis. This promoter/altered protox enzyme fusion therefore functions as an effective selectable marker for plant transformation. Several of the plants that germinated on 100.0 nM of protox-inhibiting herbicide were transplanted to soil, grown 2-3 weeks, and tested in a spray assay with various concentrations of the protox-inhibiting herbicide. When compared to empty vector control transformants, the AraPT1Pro/AraC-2Met transgenics were >10-fold more tolerant to the herbicide spray.
Using the procedure described above, an Arabidopsis protox-1 cDNA containing both a TAC to ATC (tyrosine to isoleucine) change at nucleotides 1306-1308 and a TCA to TTA (serine to leucine) change at nucleotides 945-947 in the protox-1 sequence (SEQ ID NO:1) was fused to the native protox-1 promoter fragment and transformed into Arabidopsis thaliana.

T1 sequence (P55826 41-537 T56K/A220L/Y426M): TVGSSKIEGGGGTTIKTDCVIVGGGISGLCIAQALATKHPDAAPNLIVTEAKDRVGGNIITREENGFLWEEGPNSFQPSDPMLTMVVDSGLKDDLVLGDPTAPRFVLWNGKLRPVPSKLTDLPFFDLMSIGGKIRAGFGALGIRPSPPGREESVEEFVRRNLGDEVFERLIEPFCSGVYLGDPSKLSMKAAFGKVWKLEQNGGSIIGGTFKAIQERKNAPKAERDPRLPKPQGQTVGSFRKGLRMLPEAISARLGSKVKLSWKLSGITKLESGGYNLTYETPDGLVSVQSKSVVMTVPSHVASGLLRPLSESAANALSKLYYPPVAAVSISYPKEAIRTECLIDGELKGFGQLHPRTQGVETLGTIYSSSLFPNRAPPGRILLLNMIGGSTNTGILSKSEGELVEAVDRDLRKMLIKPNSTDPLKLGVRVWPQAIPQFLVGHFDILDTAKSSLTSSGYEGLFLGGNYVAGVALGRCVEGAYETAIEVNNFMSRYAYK
T4 sequence (P55826 41-537 T56K/N425S/Y426C): as the sequence (P55826 41-537 T56K/A220L/Y426M) above, with L180A, N385S, M386C counted along it
T3 sequence (P55826 41-537 T56K/A220L/Y426L): as the sequence (P55826 41-537 T56K/A220L/Y426M) above, with M386L counted along it
T2 sequence (P55826 41-537 T56K/N425S/Y426M): as the sequence (P55826 41-537 T56K/A220L/Y426M) above, with L180A, N385S counted along it

For `CCOC(=O)COC(=O)c1cc(Oc2ccc(C(F)(F)F)cc2Cl)ccc1[N+](=O)[O-]` [IV], the “Cross tolerance, AraC-1Leu + AraC-2Met” value [1] was “+ (+ = 10× or more tolerant than WT)”, the “Cross tolerance, AraC-2Met + AraC425Ser” value [2] was “+ (+ = 10× or more tolerant than WT)” and the “Cross tolerance, AraC-3Thr” value [3] was “++ (++ = 100× or more tolerant than WT)”. For the same compound, the “Cross tolerance, AraC-1Leu + AraC-2Leu” value [4] was “++ (++ = 100× or more tolerant than WT)”, the “Cross tolerance, AraC-2Cys + AraC425Ser” value [5] was “−” and the Tolerance [6] was “± (± ≦ 10× more tolerant than wt)”.

In the case of `COC(=O)CSc1cc(N=c2sc(=O)n3n2CCCC3)c(F)cc1Cl` [VIIa], the “Cross tolerance, AraC-1Leu + AraC-2Met” value [1] is reported as “++ (++ = 100× or more tolerant than WT)”, the “Cross tolerance, AraC-2Met + AraC425Ser” value [2] is reported as “++ (++ = 100× or more tolerant than WT)” and the “Cross tolerance, AraC-3Thr” value [3] is reported as “−”. For the same compound, the “Cross tolerance, AraC-1Leu + AraC-2Leu” value [4] was “++ (++ = 100× or more tolerant than WT)”, the “Cross tolerance, AraC-2Cys + AraC425Ser” value [5] was “++ (++ = 100× or more tolerant than WT)” and the Tolerance [6] was “++ (++ ≧ 100× more tolerant than wt)”.

For `CC(C)OC(=O)c1cc(-n2c(=O)cc(C(F)(F)F)n(C)c2=O)ccc1Cl` [XI], the “Cross tolerance, AraC-1Leu + AraC-2Met” value [1] was “++ (++ = 100× or more tolerant than WT)”, the “Cross tolerance, AraC-2Met + AraC425Ser” value [2] was “++ (++ = 100× or more tolerant than WT)” and the “Cross tolerance, AraC-3Thr” value [3] was “++ (++ = 100× or more tolerant than WT)”. The “Cross tolerance, AraC-1Leu + AraC-2Leu” value [4] was “++ (++ = 100× or more tolerant than WT)”, the “Cross tolerance, AraC-2Cys + AraC425Ser” value [5] was “++ (++ = 100× or more tolerant than WT)” and the Tolerance [6] was “++ (++ ≧ 100× more tolerant than wt)”.

For `CCCCCOC(=O)COc1cc(N2C(=O)C3=C(CCCC3)C2=O)c(F)cc1Cl` [XIV], the “Cross tolerance, AraC-1Leu + AraC-2Met” value [1] was “++ (++ = 100× or more tolerant than WT)”, the “Cross tolerance, AraC-2Met + AraC425Ser” value [2] was “++ (++ = 100× or more tolerant than WT)” and the “Cross tolerance, AraC-3Thr” value [3] was “+ (+ = 10× or more tolerant than WT)”. For the same compound, the “Cross tolerance, AraC-1Leu + AraC-2Leu” value [4] was “++ (++ = 100× or more tolerant than WT)”, the “Cross tolerance, AraC-2Cys + AraC425Ser” value [5] was “−” and the Tolerance [6] was “+ (+ ≧ 10× more tolerant than wt)”.

— patent US6808904B2, “Herbicide-tolerant protox genes produced by DNA shuffling” (priority 1994, dated 2004)
